From patent publication US20250120932A1, “PHARMACEUTICAL COMPOSITION” (NEUROPRO THERAPEUTICS, INC., priority 2021, published 2025)
Values joined by “and” are separate entries in the source; they are usually repeats but may differ in a detail not shown here. Equal entries are not always repeated. Where two headings read alike, the source gives them in different places.

Columns and labels:
[1] = Crossover pharmacokinetic study of Bumetanide Dibenzylamide formulations (IN, SL, IM, PO, SC, IR) in Beagle dogs, plasma LC-MS/MS; assay type: in vivo; details: for half-life: read-out: t½ (converted)
Procedure: Male and female Beagle dogs are assigned to two groups with 2 males and 2 females in each group. The study is conducted in 3 legs with Leg 1 consisting of IM and SL administration, Leg 2 consisting of IN and PO administration, and Leg 3 consisting of SC and IR administration.
During intranasal administration, the composition is administered by gently tilting the animals head back and the intranasal dose is delivered via a syringe and atomizer. During sublingual administration, the composition is administered via a quick dissolving tablet. The tablet is placed in the sublingual space and the mouth held shut for approximately 60-90 seconds. After one minute, the mouth of the animal is opened to confirm that the tablet has fully dissolved. During intramuscular administration, the composition is administered into the bicep femoris (rear thigh). The dose site is gently shaved prior to dosing. A syringe with a 25 g needle is utilized. During oral administration, the composition is administered via three capsules placed at the back of the animal's mouth and the placement is followed by a 10 mL drinking water flush to assure that the animal swallowed the capsules. During subcutaneous administration, the composition is administered into the dorsal subcutaneous space directly at the scruff of the neck of the animal. The dose site is gently shaved prior to dosing. A syringe with a 25 g needle is utilized. During intrarectal administration, the composition is administered by gently placing a 1 cc syringe in the rectum of the animal.
All animals are fasted for approximately 12 hours prior to dosing. Animals are fed four hours post dosing with water offered ad libitum throughout the study. All animals completed the study. […] Blood and urine samples are collected out to 24 hours.
Blood sample are collected from the jugular vein, or other suitable vessel via direct venipuncture, placed into a chilled tube containing K2EDTA as the anticoagulant, and inverted several times to mix. Blood samples are kept on wet ice until centrifugation.
The assay is verified with respect to standard bioanalytical methodology including acceptable accuracy and precision based upon quality control sample analysis and results. The range of the method for both analytes is from about 0.250 ng/ml to about 250 ng/mL.
The PK parameters defined in Table 10 are calculated by non-compartmental methods using individual animal concentration-time data. […] Nominal blood sampling times are used in the analysis. […] Individual below quantitation limits (BQL) results are set to zero for all calculations. No animals are excluded from the analysis. In one aspect, non-compartmental pharmacokinetic analysis provides observed or calculated values of Cmax, Tmax, and AUClast for all animals and estimates of AUCinf and CL/F for those animals where a terminal phase half-life (t1/2) could be estimated.

[2] = Oral delivery of unformulated Bumetanide Dibenzylamide in Beagle dogs, pharmacokinetics and bioavailability; assay type: in vivo
[3] = Solubility in injection vehicle compositions; assay type: physicochemical; details: 40% PEG-400, 20% Propylene glycol, 5% Ethanol, 35% water
Source text: Multiple vehicle compositions were investigated, resulting in a clear dosing solution or suspension at the time of the preparation or shortly after the preparation. Vehicles tested included 55% Polyethylene glycol 400 (PEG-400) in water, 41% PEG-400, 12% Ethanol, 47% water, 45% PEG-400, 10% DMSO, 45% Water, 31% PEG-400, 31% Tetraglycol, 15% Caprylocaproyl Polyoxylglycerides (Labrasol ALF), 23% water, 30% PEG-400, 10% N-Methyl Pyrrolidone, 10% DMSO, 50% water, 25% PEG-400, 10% DMSO, 20% Tetraglycol, 45% water, 20% Ethanol in water, 20% Hydroxypropyl-β-Cyclodextrin in water, 11% DMSO, 22% PEG-400, 22% Tetraglycol, 44% water, 44% PEG-400, 0.4% Poloxamer-188, 22% N-Methyl Pyrrolidone, 33% water, and 20% PEG-400, 15% Hydroxypropyl-β-Cyclodextrin in water.
After filtration with a 0.22 μm PVDF filter, the sample stayed clear for up to 7 days. The compositions selected for animal studies are described in Table 67 and Table 68.

physchem = experiment: physchem
Source text: Crucial to the efficacy of any treatment by a pharmaceutical composition is the overall systemic bioavailability of the pharmaceutical composition used for said treatment. […] LogP is one measure of lipophyilicity, and is the octal:water partition coefficient expressed as a log ratio of molecule in octanol relative to water after mixing.

[4] = both sexes, Beagle, dog, plasma, po, 30 mg, PO capsules
[5] = both sexes, Beagle, dog, plasma, sc, 15 mg

CCCCNc1cc(C(=O)N(Cc2ccccc2)Cc2ccccc2)cc(S(N)(=O)=O)c1Oc1ccccc1 [Bumetanide Dibenzylamide, N, N-dibenzyl 3-aminosulfonyl-5-butylamino-4-phenoxybenzamide]
AUCinf ([1]; IN, 15 mg): 0.234 µg·h/mL and 0.224 µg·h/mL and 0.164 µg·h/mL and 0.221 µg·h/mL
CL/F ([1]; IN, 15 mg): 64.1 L/h and 66.8 L/h and 91.5 L/h and 67.7 L/h
Plasma Bumetanide Dibenzylamide concentration ([1]; IN, 15 mg, 24 h): 3.15 ng/mL and 2.07 ng/mL and 1.59 ng/mL
Plasma Bumetanide Dibenzylamide concentration ([1]; IN, 15 mg, 24 h, mean): 2.31 ng/mL
CL/F ([1]; IN, 15 mg, mean): 72.5 L/h
Mean concentrations of Bumetanide Dibenzylamide ([1]; IR, 30 mg, at all times after dosing): less than 10 ng/mL
AUCinf ([1]; PO capsules, 30 mg): 0.98 µg·h/mL and 0.698 µg·h/mL and 0.666 µg·h/mL and 0.91 µg·h/mL
AUClast ([1]; PO capsules, 30 mg): 0.675 µg·h/mL and 0.639 µg·h/mL and 0.893 µg·h/mL
CL/F ([1]; PO capsules, 30 mg): 30.6 L/h and 43.0 L/h and 45.0 L/h and 33.0 L/h
Cmax ([1]; PO capsules, 30 mg): 0.28 µg/mL and 0.158 µg/mL and 0.175 µg/mL and 0.259 µg/mL
t½ ([1]; PO capsules, 30 mg): 5.62 h and 6.79 h and 5.10 h
Plasma Bumetanide Dibenzylamide concentration ([1]; PO capsules, 30 mg, 2 h): 280 ng/mL and 158 ng/mL and 175 ng/mL
Plasma Bumetanide Dibenzylamide concentration ([1]; PO capsules, 30 mg, 2 h, mean): 218 ng/mL
Plasma Bumetanide Dibenzylamide concentration ([1]; PO capsules, 30 mg, 4 h): 85.3 ng/mL and 68.7 ng/mL and 56.9 ng/mL
Plasma Bumetanide Dibenzylamide concentration ([1]; PO capsules, 30 mg, 4 h, mean): 76.7 ng/mL
Plasma Bumetanide Dibenzylamide concentration ([1]; PO capsules, 30 mg, 8 h): 21.2 ng/mL and 21.9 ng/mL and 15.7 ng/mL
Plasma Bumetanide Dibenzylamide concentration ([1]; PO capsules, 30 mg, 8 h, mean): 20.1 ng/mL
Plasma Bumetanide Dibenzylamide concentration ([1]; PO capsules, 30 mg, 12 h): 8.65 ng/mL and 10.5 ng/mL and 7.91 ng/mL
Plasma Bumetanide Dibenzylamide concentration ([1]; PO capsules, 30 mg, 12 h, mean): 9.34 ng/mL
Plasma Bumetanide Dibenzylamide concentration ([1]; PO capsules, 30 mg, 24 h): 2.86 ng/mL and 2.84 ng/mL and 2.83 ng/mL
Plasma Bumetanide Dibenzylamide concentration ([1]; PO capsules, 30 mg, 24 h, mean): 2.71 ng/mL
AUClast ([1]; PO capsules, 30 mg, mean): 0.791 µg·h/mL
CL/F ([1]; PO capsules, 30 mg, mean): 37.9 L/h
t½ ([1]; PO capsules, 30 mg, mean): 5.85 h
AUCinf ([1]; SC, 15 mg): 0.286 µg·h/mL and 0.247 µg·h/mL and 0.158 µg·h/mL
AUClast ([1]; SC, 15 mg): 0.0798 µg·h/mL and 0.129 µg·h/mL and 0.0913 µg·h/mL
CL/F ([1]; SC, 15 mg): 52.4 L/h and 64.8 L/h and 60.7 L/h and 94.7 L/h
t½ ([1]; SC, 15 mg): 36.2 h and 22.2 h and 19.1 h
Plasma Bumetanide Dibenzylamide concentration ([1]; SC, 15 mg, 0 h): 1.65 ng/mL and 2.39 ng/mL and 1.55 ng/mL
Plasma Bumetanide Dibenzylamide concentration ([1]; SC, 15 mg, 0 h, mean): 1.75 ng/mL
Plasma Bumetanide Dibenzylamide concentration ([1]; SC, 15 mg, 0.5 h): 2.76 ng/mL and 3.42 ng/mL and 1.81 ng/mL
Plasma Bumetanide Dibenzylamide concentration ([1]; SC, 15 mg, 0.5 h, mean): 2.52 ng/mL
Plasma Bumetanide Dibenzylamide concentration ([1]; SC, 15 mg, 8 h): 4.54 ng/mL and 7.47 ng/mL and 4.14 ng/mL
Plasma Bumetanide Dibenzylamide concentration ([1]; SC, 15 mg, 8 h, mean): 5.71 ng/mL
Plasma Bumetanide Dibenzylamide concentration ([1]; SC, 15 mg, 12 h): 3.35 ng/mL and 5.77 ng/mL and 3.22 ng/mL
Plasma Bumetanide Dibenzylamide concentration ([1]; SC, 15 mg, 12 h, mean): 4.36 ng/mL
Plasma Bumetanide Dibenzylamide concentration ([1]; SC, 15 mg, 24 h): 2.43 ng/mL and 4.30 ng/mL and 2.90 ng/mL
Plasma Bumetanide Dibenzylamide concentration ([1]; SC, 15 mg, 24 h, mean): 3.33 ng/mL
AUClast ([1]; SC, 15 mg, mean): 0.113 µg·h/mL
CL/F ([1]; SC, 15 mg, mean): 68.2 L/h
t½ ([1]; SC, 15 mg, mean): 24.8 h
CL/F ([1]; SL, 30 mg): 1690 L/h
Tmax ([1]; SL, 30 mg): 1.00 h
Tmax ([1]; SL, 30 mg, mean): 1.50 h
adverse reactions ([1]; all routes, 15 or 30 mg): no adverse reactions are noted
AUC(0-inf) ([1]; both sexes, Beagle, dog, plasma, 30 mg, IR): 0.0551 µg·h/mL
Cmax ([1]; both sexes, Beagle, dog, plasma, 30 mg, IR, 30 mg, read-out: mean Cmax): 0.00844 µg/mL
AUC(0-inf) ([1]; both sexes, Beagle, dog, plasma, 30 mg, SL): 0.0177 µg·h/mL
Tmax ([1]; both sexes, Beagle, dog, plasma, 30 mg, SL, 30 mg, read-out: Tmax): 2 h
half-life ([1]; both sexes, Beagle, dog, plasma, 30 mg, SL, 30 mg): 5.26 h
AUC(0-inf) ([1]; both sexes, Beagle, dog, plasma, inhaled or intranasal, 15 mg, IN): 0.211 µg·h/mL
AUC(0-inf) [1, 4]: 0.814 µg·h/mL
AUC(0-t) [1, 4]: 0.956 µg·h/mL
Cmax ([1]; both sexes, Beagle, dog, plasma, po, 30 mg, PO capsules, 30 mg, read-out: Cmax): 0.218 µg/mL
Tmax ([1]; both sexes, Beagle, dog, plasma, po, 30 mg, PO capsules, 30 mg, read-out: Tmax): 2 h
half-life ([1]; both sexes, Beagle, dog, plasma, po, 30 mg, PO capsules, 30 mg): 5.89 h
AUC(0-inf) [1, 5]: 0.231 µg·h/mL
AUC(0-t) [1, 5]: 0.153 µg·h/mL
half-life ([1]; both sexes, Beagle, dog, plasma, sc, 15 mg, SC, 15 mg): 21.5 h
bioavailability ([2]; Beagle, dog, in vivo, 30 mg, oral non-formulated, read-out: Absolute Bioavailability): ~5.1%
concentration at 0.5 h ([2]; Beagle, dog, plasma, oral, 30 mg/kg, Plasma Bumetanide Dibenzylamide concentration, oral non-formulated 30 mg/kg, 0.5 h): 0.00299 µg/mL
concentration at 4 h ([2]; Beagle, dog, plasma, oral, 30 mg/kg, Plasma Bumetanide Dibenzylamide concentration, oral non-formulated 30 mg/kg, 4 h): 0.149 µg/mL
concentration at 6 h ([2]; Beagle, dog, plasma, oral, 30 mg/kg, Plasma Bumetanide Dibenzylamide concentration, oral non-formulated 30 mg/kg, 6 h): 0.151 µg/mL
concentration at 8 h ([2]; Beagle, dog, plasma, oral, 30 mg/kg, Plasma Bumetanide Dibenzylamide concentration, oral non-formulated 30 mg/kg, 8 h): 0.101 µg/mL
concentration at 12 h ([2]; Beagle, dog, plasma, oral, 30 mg/kg, Plasma Bumetanide Dibenzylamide concentration, oral non-formulated 30 mg/kg, 12 h): 0.0401 µg/mL
Plasma Bumetanide Dibenzylamide concentration ([2]; oral non-formulated 30 mg/kg, 0.5 h): 2.17 ng/mL
Plasma Bumetanide Dibenzylamide concentration ([2]; oral non-formulated 30 mg/kg, 0.5 h, mean): 2.58 ng/mL
Plasma Bumetanide Dibenzylamide concentration ([2]; oral non-formulated 30 mg/kg, 4 h): 136 ng/mL
Plasma Bumetanide Dibenzylamide concentration ([2]; oral non-formulated 30 mg/kg, 4 h, mean): 143 ng/mL
Plasma Bumetanide Dibenzylamide concentration ([2]; oral non-formulated 30 mg/kg, 6 h): 153 ng/mL
Plasma Bumetanide Dibenzylamide concentration ([2]; oral non-formulated 30 mg/kg, 6 h, mean): 152 ng/mL
Plasma Bumetanide Dibenzylamide concentration ([2]; oral non-formulated 30 mg/kg, 8 h): 132 ng/mL
Plasma Bumetanide Dibenzylamide concentration ([2]; oral non-formulated 30 mg/kg, 8 h, mean): 117 ng/mL
Plasma Bumetanide Dibenzylamide concentration ([2]; oral non-formulated 30 mg/kg, 12 h): 50.5 ng/mL
Plasma Bumetanide Dibenzylamide concentration ([2]; oral non-formulated 30 mg/kg, 12 h, mean): 45.3 ng/mL
time sample stayed clear after filtration ([3]; 0.22 μm PVDF filter): up to 7 days
time as clear solution ([3]; room temperature): at least 3 hours
logP (physchem): ~5.9
